According to patent publication US4283420A, “Pharmaceutically active cyclohexyl compounds and their preparation” (Labaz, priority 1978, dated 1981):
Like-named read-outs stand apart in the source and are kept apart here.

Legend:
male Swiss mice = assay: Maximum electrical seizure; format: in vivo; settings: for ED50: Mus musculus, po, 0.25 h, read-out: Maximum electrical seizure, ED50; for Maximum electrical seizure, % protection: peroral, 15 minutes
Text: Maximum electrical seizure
The technique used is that recommended by GOODMAN (L. S.), SING-GREWALD (M.), BROWN (V. C.) and […] (E. A.), Am.
The animals tested are male Swiss mice grouped into batches of 10. The normal threshold of the electric shock which is capable of causing tonic extension of the front paws is first determined for each animal.

male OFl mice = assay: Pentetrazole seizure (mortality after i.p. pentetrazole 125 mg/kg); format: in vivo; settings: for ED50: Mus musculus, po, 0.25 h, read-out: Pentetrazole seizure, ED50; for Pentetrazole seizure, % protection: peroral, 15 minutes
Method: This test was carried out on batches of 10 male OFl mice which had fasted since the day before and were placed in individual cages, in accordance with the method of Cheymol (J.) Acta. Pharmacol., (1950), 2, 1-55.
The treatments were carried out perorally 15 minutes before intraperitoneal (i.p.) injection of a solution of pentetrazole (125 mg/kg).
The mortality is recorded 3 hours after this injection.
It is to be noted that the 50% effective doses (ED50), where these have been determined, were calculated by the method of MOOD (J. Am. Statist. Assoc., (1965), 60, 967-78).

mice [1] = assay: Anoxia as a result of confinement; format: in vivo; settings: Mus musculus, ip, read-out: Anoxia as a result of confinement, % increase in the survival time
Method: Anoxia as a result of confinement
Mice (in batches of 20) are placed in a 200 cm^3 hermetically sealed chamber (a wide-mouthed glass vessel) which is under normal pressure and has a normal content of atmospheric oxygen. All of the treatments are administered intraperitoneally immediately before introduction into the chamber. The animal is considered to be dead at the moment when breathing stops.
Since the wide-mouthed vessels chosen are very small, the motor activity of the animals is extremely low and this eliminates, in principle, the possibility of a positive result due to a sedative effect.
Therefore, the percentage increase in the survival time of the treated animals is noted, relative to the batch.

Acute toxicity, peroral = settings: mouse, in vivo, po
Method: In order to locate the boundary separating the pharmacological effects from the toxicity of the products, a very approximate assessment of the toxicity was carried out on mice (batches of 10 animals) after peroral treatment.

male mice = assay: Sedative activity: Rotarod test; format: in vivo; settings: peroral, mice
Method: (§1) This test is used for the purpose of assessing the ability of the animals to coordinate their movements. It uses a wooden cylinder which has a diameter of 4.8 cm and revolves at a speed of 4 revolutions/minute. The test is carried out on male mice weighing about 22 g. The products are administered perorally (p.o.) to batches of 10 animals per dose. The animals are placed on the apparatus 15 minutes after administration of the product. The percentage of mice which lose their equilibrium reflex, that is to say which become incapable of retaining their balance on the cylinder for a period of 2 minutes, is noted.
(§2) Using the regression straight line method, a 50% neurotoxic dose (NTD 50) is calculated, which thus expresses the average level of the first neuromuscular effects under the influence of the studied product.

mouse = assay: Ouabain seizure; format: in vivo; settings: po, 0.25 h, read-out: Ouabain seizure, ED50
Method: Ouabain was administered intra-ventricularly at a dose of 5 γ/mouse in a volume of 0.02 ml.

mice [2] = assay: β-Mercaptopropionic acid seizure; format: in vivo; settings: Mus musculus, po, 0.25 h, read-out: β-Mercaptopropionic acid seizure, ED50
Method: β-Mercaptopropionic acid seizure
β-Mercaptopropionic acid is an inhibitor of glutamatedecarboxylase (GAD), which is an enzyme which catalyses the conversion of glutamate to γ-aminobutyric acid (GABA). Its action thus manifests itself in a lowering of the GABA level and the occurrence of general tonico-clonic seizures 3 to 4 minutes after it has been administered. β-Mercaptopropionic acid was administered to mice intraperitoneally at a dose of 40 mg/kg.

[3] = Sedative activity: Rotarod test; format: in vivo, mice (male); settings: mouse, in vivo, po
Method: as §1, §2

[4] = ouabain 5 γ/mouse intra-ventricularly, measured 15 minutes after peroral treatment
[5] = mice, measured 15 minutes after peroral treatment
[6] = Table IV, mice, measured 15 minutes after peroral treatment
[7] = β-mercaptopropionic acid 40 mg/kg i.p., mice, 15 minutes after peroral treatment

In the case of `C#CCC1(C(=O)[O-])CCCCC1.[Na+]`, the ED50 (male Swiss mice) is reported as 478 mg/kg, the ED50 (male OFl mice) is reported as 120 mg/kg and the ILS at 280 mg/kg (mice [1]) is reported as 48%. For the same molecule, the mortality (Acute toxicity, peroral; at 950 mg/kg, peroral, mice) was 10%, the “Rotarod test, % of failures” value (male mice; at 550 mg/kg) was 40% and the ED50 (mouse; Mus musculus) was 507 mg/kg. For the same molecule, the ED50 (mice [2]) was 245 mg/kg.

For `C#CC1(C(=O)O)CCCCC1` [Example 17], the “Maximum electrical seizure, % protection” value (male Swiss mice; at 170 mg/kg, mice) was 13%, the “Pentetrazole seizure, % protection” value (male OFl mice; at 170 mg/kg, mice) was 30% and the ILS at 210 mg/kg (mice [1]; at 210 mg/kg, intraperitoneal, mice) was 23%. The “Rotarod test, % of failures” value (male mice; at 500 mg/kg) was 0% and the ED50 (mouse; [4]) was 933 mg/kg.

In the case of `C=C(Cl)C1(C(=O)O)CCCCC1` [Example 18], the “Pentetrazole seizure, % protection” value (male OFl mice; at 200 mg/kg, mice) is reported as 40%, the ILS at 260 mg/kg (mice [1]; at 260 mg/kg, intraperitoneal, mice) is reported as 40% and the “Rotarod test, % of failures” value (male mice; at 600 mg/kg) is reported as 0%. It also gave an ED50 (mouse; [4]) of 851 mg/kg.

For `C=C(Cl)CC1(C(=O)O)CCCCC1` [Example 19], the ED50 (male Swiss mice; [5]) was 366 mg/kg, the ED50 (male OFl mice; [6]) was 94 mg/kg and the ILS at 240 mg/kg (mice [1]; at 240 mg/kg, intraperitoneal, mice) was 45%. For the same molecule, the mortality (Acute toxicity, peroral; 1100 mg/kg) was 10%, the “Rotarod test, % of failures” value (male mice; at 700 mg/kg) was 30% and the ED50 (mouse; [4]) was 579 mg/kg. It also gave an ED50 (mice [2]; [7]) of 300 mg/kg.

For `C=CCC1(C(=O)[O-])CCCCC1.[Na+]` [Example 22, Sodium 1-allyl-1-cyclohexyl-carboxylate], the “Maximum electrical seizure, % protection” value (male Swiss mice; at 200 mg/kg, mice) was 80%, the ED50 (male OFl mice) was 154 mg/kg and the ILS at 240 mg/kg (mice [1]) was 59%. The “Rotarod test, % of failures” value (male mice; at 600 mg/kg) was 20% and the ED50 (mouse; [4]) was 638 mg/kg.

In the case of `CC(C)C1(C(N)=O)CCCCC1` [Example 29], the ED50 (male Swiss mice; [5]) is reported as 70 mg/kg, the ED50 (male OFl mice; [6]) is reported as 15 mg/kg and the ILS at 25 mg/kg (mice [1]; at 25 mg/kg, intraperitoneal, mice) is reported as 16%. The mortality (Acute toxicity, peroral; 500 mg/kg) was 100%, the TD50 at 0.25 h [3] was 35 mg/kg and the ED50 (mouse; [4]) was 31 mg/kg. It also gave an ED50 (mice [2]; [7]) of 12 mg/kg.

For `CC(=O)CC1(C(=O)[O-])CCCCC1.[Na+]` [Example 46, Sodium 1-acetonyl-1-cyclohexyl-carboxylate], the ED50 (male OFl mice) was 300 mg/kg, the “Rotarod test, % of failures” value (male mice; at 600 mg/kg) was 0% and the ED50 (mouse; [4]) was greater than 900 mg/kg. The ED50 (mice [2]; [7]) was 270 mg/kg.

In the case of `COCC1(C(=O)O)CCCCC1` [Example 55], the “Maximum electrical seizure, % protection” value (male Swiss mice; at 190 mg/kg, mice) is reported as 0%, the ED50 (male OFl mice; [6]) is reported as 190 mg/kg and the “Rotarod test, % of failures” value (male mice; at 600 mg/kg) is reported as 0%. It also gave an ED50 (mouse; [4]) of 950 mg/kg.
